From ChEMBL document CHEMBL5729670, “Method for controlling hematophagous or sap-feeding arthropods” (2023)

Test: thallium-flux assay: The thallium flux assay is an in vitro method of measuring conductance through a potassium ion channel. Potassium channels are also permeable to thallium ions. The modulation of a K+ channel will thus increase or decrease thallium ion flow through the channel and thus, alter the observed fluorescence of a thallium-specific indicator dye.Stably transfected T-Rex-HEK-293-AnKir1 cells were cultured overnight in 384-well plates in media containing DMEM, 10% dialyzed FBS, and 1 μg/mL tetracycline to induce channel expression. The next day the cell culture medium was replaced with a dye-loading solution containing assay buffer (Hanks Balanced Salt Solution with 20 mM HEPES, pH 7.3), 0.01% (w/v) Pluronic F-127 (Life Technologies, Carlsbad, Calif.), and 1.2 μM of the thallium-sensitive dye Thallos-AM (TEFlabs, Austin, Tex.). After 1 hr incubation at room temperature, the dye-loading solution was washed from the plates and replaced with 20 μL/well of assay buffer. The plates were transferred to a Hamamatsu Functional Drug Screening System 6000 (FDSS6000; Hamamatsu, Tokyo, Japan), where 20 μL/well of each of the test compounds in assay buffer was added and allowed to incubate with the cells for 20 min. […]

- IC50: 15 µM
SMILES: O=C(Cn1nc(C(F)(F)F)c2c1CCCC2)N1CCc2ccccc2C1
